Reference: US5476966A, “Method for depletion of glutathione” (Cornell Research Foundation, Inc., priority 1995, dated 1995)

What was measured:
[1] = test system: human lymphoid cell lines; details: cited from earlier work
[2] = test system: mouse L1210 leukemia cells; details: resistant cells treated with BSO; cited from earlier work
glutathione [3] = assay: Tissue glutathione levels after intraperitoneal administration of sulfoximines; type: in vivo, mouse; details: 2 mmol/Kg i.p.
Experimental: Male mice (Swiss Webster) were fasted overnight (about 16 hr). L-3-methylbuthionine-SR-sulfoximine (3 mBSO; L-S-3-methylbutyl homocysteine-SR-sulfoximine; L-S-isopentyl homocysteine-SR-sulfoximine), L-buthionine-SR-sulfoximine(BSO; L-S-butyl homocysteine-SR-sulfoximine), L-2-methylbuthiomine-SR-sulfoximine (2 mBSO, L-S-2methylbutyl homocysteine-SR-sulfoximine), or saline (0.9% NaCl) were administered to mice at 2 mmol/Kg intraperitoneally (50 mM, Ph ^~ 7). At the times indicated, plasma and tissues were obtained and assayed for glutathione (GSH+1/2 GSSG) as described by Anderson, Methods in Enzymology, 1985, 113:548-555.

[4] = mice depleted of glutathione by buthionine sulfoximine; cited from earlier work
Trypanosoma brucei = details: six mice treated, cited from earlier work
resistant tumors = details: continuous intraperitoneal infusion of BSO; cited from earlier work
resistant cells = details: glutathione depletion by BSO; cited from earlier work
glutathione [5] = assay: Tissue glutathione after oral administration of sulfoximines (Table 4); type: in vivo, mouse; details: 2 mmol/Kg oral
Experimental: (§1) Male mice (Swiss Webster) were fasted overnight (about 16 hr.) L-buthionine-SR-sulfoximine (BSO, S-n-butyl homocysteine-SR-sulfoximine), L-S-cyclohexylmethyl homocysteine-SR-sulfoximine (CHMSO); L-S-2-ethylbutylhomocysteine-SR-sulfoximine (2 EtBSO, L-S-2-ethylbutyl homocysteine-SR-sulfoximine, or saline (0.9% NaCl) were administered to mice at 2 mmol/Kg by intubation (100 mM; pH about 1 with HCl (200 mM). At the times indicated, plasma and tissues were obtained and assayed for glutathione (GSH+1/2 GSSG) as described by Anderson, Methods in Enzymology, 1985, 113:548-555. (See Table 4 and 5.)

[6] = test system: human ovarian cancer cells; details: cited from earlier work
[7] = Detection of compound in mouse bile; type: in vivo
tumor cell lines = details: glucose oxidase, activated macrophages and granulocytes with phorbol myristate acetate; cited from earlier work
[8] = test system: human lymphoid cell lines; details: cited from earlier work; remark: listed apart in the source
glutathione [9] = assay: Tissue glutathione after oral administration of sulfoximines (Table 5); type: in vivo, mouse; details: for % Decrease in glutathione / Glutathione level: 2 mmol/Kg oral
Experimental: as §1

V79 cells = details: cited from earlier work

## CCCCS(=N)(=O)CCC(N)C(=O)O [BSO, L-S-butyl homocysteine-SR-sulfoximine]
[1]; cells with 4-5% of control glutathione
  sensitivity to γ-radiation: much more sensitive
[1]; glutathione about 5% of the control levels
  sensitivity to radiation: marked increase in sensitivity to radiation
[2]
  sensitivity of resistant cells to phenylalanine mustard: resensitization of the tumor cells to phenylalanine mustard
Glutathione [3]; brain, 2 hr
  % Decrease in glutathione: 10%
  Glutathione level: 2.08 µmol/g
Glutathione [3]; brain, 12 hr
  % Decrease in glutathione: 17%
  Glutathione level: 1.93 µmol/g
Glutathione [3]; heart, 2 hr
  % Decrease in glutathione: 14%
  Glutathione level: 1.16 µmol/g
Glutathione [3]; heart, 12 hr
  % Decrease in glutathione: 57%
  Glutathione level: 0.56 µmol/g
Glutathione [3]; kidney, 2 hr
  % Decrease in glutathione: 82%
  Glutathione level: 0.76 µmol/g
Glutathione [3]; kidney, 12 hr
  % Decrease in glutathione: 79%
  Glutathione level: 0.75 µmol/g
Glutathione [3]; liver, 2 hr
  % Decrease in glutathione: 72%
  Glutathione level: 1.50 µmol/g
Glutathione [3]; liver, 12 hr
  % Decrease in glutathione: 32%
  Glutathione level: 3.37 µmol/g
Glutathione [3]; plasma, 2 hr
  % Decrease in glutathione: 66%
  Glutathione level: 10.1 µM
Glutathione [3]; plasma, 12 hr
  % Decrease in glutathione: 43%
  Glutathione level: 16.3 µM
[4]
  decrease in LD50 value of acetaminophen: about 80%
Trypanosoma brucei
  cure of infected mice: two mice were apparently cured
Trypanosoma brucei; versus untreated infected controls
  survival of infected mice: four mice survived significantly longer
Resistant tumors
  life span: increase in the life span
  sensitization of tumors to phenylalanine mustard: sensitization of the tumors to the effects of phenylalanine mustard was achieved
Resistant cells
  reversal of drug resistance: reversal of drug resistance
Glutathione [5]; brain, 2 hr
  % Decrease in glutathione: 24%
  Glutathione level: 1.86 µmol/g
Glutathione [5]; brain, 12 hr
  % Decrease in glutathione: 18%
  Glutathione level: 1.73 µmol/g
Glutathione [5]; kidney, 2 hr
  % Decrease in glutathione: 80%
  Glutathione level: 0.69 µmol/g
Glutathione [5]; kidney, 12 hr
  % Decrease in glutathione: 87%
  Glutathione level: 0.45 µmol/g
Glutathione [5]; liver, 2 hr
  % Decrease in glutathione: 75%
  Glutathione level: 1.23 µmol/g
Glutathione [5]; liver, 12 hr
  % Decrease in glutathione: 78%
  Glutathione level: 1.10 µmol/g
Glutathione [5]; plasma, 2 hr
  % Decrease in glutathione: 59%
  Glutathione level: 9.7 µM
Glutathione [5]; plasma, 12 hr
  % Decrease in glutathione: 69%
  Glutathione level: 7.2 µM
[6]; glutathione depletion with BSO
  reversal of resistance: Reversal of resistance can be achieved
[6]; glutathione depletion
  sensitivity of resistant cells to the drugs and to radiation: significantly increases the sensitivity of the resistant cells
[7]
  detection in mouse bile: no BSO was detected
Tumor cell lines
  degree of cytolysis: enhanced the degree of cytolysis
[8]; CEM line, L-serine plus borate in medium
  disappeared intracellular glutathione found in the medium: About 50%
[8]; below 0.09 mM glutathione
  cell viability on further decrease in glutathione level: marked loss of viability
[8]; cells with 0.09 mM glutathione (4% of controls)
  cell viability: 85%
[8]; three human lymphoid cell lines, medium containing BSO, 50 hours
  cellular glutathione as percent of control levels: about 5%
Glutathione [9]; 2 mmol/kg, 12 hours, experimental error about 5%
  decrease in brain glutathione levels: ~20%
Glutathione [9]; 2 hours, 2 mmol/kg, mice
  decrease in glutathione levels (cardio-toxicity): 22%
Glutathione [9]; brain, 2 hr
  % Decrease in glutathione: 0%
  Glutathione level: 2.17 µmol/g
Glutathione [9]; brain, 4 hr
  % Decrease in glutathione: 10%
  Glutathione level: 1.95 µmol/g
Glutathione [9]; brain, 8 hr
  % Decrease in glutathione: 12%
  Glutathione level: 2.04 µmol/g
Glutathione [9]; brain, 12 hr
  % Decrease in glutathione: 18%
  Glutathione level: 1.64 µmol/g
Glutathione [9]; heart, 2 hr
  % Decrease in glutathione: 22%
  Glutathione level: 0.86 µmol/g
Glutathione [9]; heart, 4 hr
  % Decrease in glutathione: 17%
  Glutathione level: 0.91 µmol/g
Glutathione [9]; heart, 8 hr
  % Decrease in glutathione: 36%
  Glutathione level: 0.65 µmol/g
Glutathione [9]; heart, 12 hr
  % Decrease in glutathione: 49%
  Glutathione level: 0.58 µmol/g
Glutathione [9]; kidney, 2 hr
  % Decrease in glutathione: 71%
  Glutathione level: 0.81 µmol/g
Glutathione [9]; kidney, 4 hr
  % Decrease in glutathione: 80%
  Glutathione level: 0.57 µmol/g
Glutathione [9]; kidney, 8 hr
  % Decrease in glutathione: 86%
  Glutathione level: 0.44 µmol/g
Glutathione [9]; kidney, 12 hr
  % Decrease in glutathione: 91%
  Glutathione level: 0.30 µmol/g
Glutathione [9]; liver, 2 hr
  % Decrease in glutathione: 71%
  Glutathione level: 1.50 µmol/g
Glutathione [9]; liver, 4 hr
  % Decrease in glutathione: 87%
  Glutathione level: 0.70 µmol/g
Glutathione [9]; liver, 8 hr
  % Decrease in glutathione: 89%
  Glutathione level: 0.60 µmol/g
Glutathione [9]; liver, 12 hr
  % Decrease in glutathione: 85%
  Glutathione level: 0.73 µmol/g
Glutathione [9]; plasma, 2 hr
  % Decrease in glutathione: 56%
  Glutathione level: 9.8 µM
Glutathione [9]; plasma, 4 hr
  % Decrease in glutathione: 68%
  Glutathione level: 7.1 µM
Glutathione [9]; plasma, 8 hr
  % Decrease in glutathione: 78%
  Glutathione level: 5.1 µM
Glutathione [9]; plasma, 12 hr
  % Decrease in glutathione: 77%
  Glutathione level: 5.5 µM
V79 cells
  oxygen enhancement ratio: decrease of the oxygen enhancement ratio
V79 cells; hypoxic conditions
  sensitization to radiation: sensitization to radiation under hypoxic conditions
